What was measured:
B cells (B-lin) = experiment: MLTA, B-lin: concentration-response and QSP model fit; assay type: cell-based, human; conditions: Homo sapiens, B-cell, 144 h
Summary of the method: (§1)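 Freeze-thawed primary human bone marrow CD34+ cells were cultured 6 days in SFEM II with a cytokine cocktail, drug added on day 0. Subsets were counted by 17-parameter flow cytometry with TruCount beads and normalized to vehicle wells. An Emax QSP model (Emax 0–2, L1 regularization) was fitted to these counts.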

[1] = system: multi-potent progenitors (MPPs); experiment: MLTA, MPPs: concentration-response and QSP model fit; assay type: cell-based, human
Summary of the method: as §1

[2] = system: early erythroid cells (Eryth I); experiment: MLTA, ErythI: concentration-response and QSP model fit; assay type: cell-based, human
Summary of the method: (§2)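 Parameters come from fitting an Emax-based QSP model, with L1 regularization and Emax ranging 0–2, to vehicle-normalized, bead-corrected flow cytometry counts. Counts came from human bone marrow CD34+ cells treated from day 0 through a 6-day multi-lineage cytokine culture in SFEM II, using 2–7 donors per drug.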

monocytes (monocyte-lin) = experiment: MLTA, Mono: concentration-response and QSP model fit; assay type: cell-based, human; conditions: Homo sapiens, Monocyte, 144 h
Summary of the method: as §2

[3] = system: hematopoietic stem cells (HSCs); experiment: Multi-lineage toxicity assay (MLTA), HSCs: concentration-response and QSP model fit; assay type: cell-based, human
Summary of the method: as §1

[4] = system: late erythroid cells (Eryth II); experiment: MLTA, ErythII: concentration-response and QSP model fit; assay type: cell-based, human; conditions: Homo sapiens, 144 h
Summary of the method: as §1

[5] = system: monocyte progenitors (monocyte prog); experiment: MLTA, MonoP: concentration-response and QSP model fit; assay type: cell-based, human
Summary of the method: as §2

[6] = system: total dead cells (totalDeadCells); experiment: MLTA, total dead cells concentration-response; assay type: cell-based; conditions: Homo sapiens, 144 h, 6 days, normalized to vehicle control, read-out: total_dead normalized cell count
Protocol: A custom optimized cytokine cocktail was developed using commercially available cytokines (Peprotech, New Jersey) to facilitate simultaneous multi-lineage differentiation and self-renewal of freeze-thawed primary human bone marrow-derived CD34+ cells in SFEM II media (cells and media from StemCell Technologies, Vancouver). Cultures were carried out in ultra-low attachment 96-well plates (Corning, New York) with test article added on day 0 and cultured at 37°C, 85% relative humidity, and 5% CO2 for six days before interrogating drug impact via 17-parameter flow cytometry.
The flow cytometry panel used to define hematopoietic subsets was composed of CD34-PECy7, CD90-PECY5, CD38-AF488, CD371-PE, CD45Ra-BV421, CD14-BV605, CD42b-AF647, CD10-PEDazzle594, CD235a-PerCPCy5.5 (BioLegend, California), CD15-BUV395, CD41a-APCH7, CD71-BV786 (BD Biosciences, California), and DAPI for dead cell exclusion (ThermoFisher, California). In short, Day 6 cells were harvested, FcR-blocked (FcR binding inhibitor, ThermoFisher), surface-stained, then analyzed in a buffer containing TruCount Control Beads using a BD LSR Fortessa SORP fitted with a high-throughput sampler (BD Biosciences, California). Data was analyzed in Diva 6.0.2 and exported to CSV where after all cell data was transformed to cell per mL then normalized on a per-donor basis to untreated control wells to determine drug impact.
Donor material was collected and cultured as described above. The number of replicate donor samples per drug ranged from 2–7 and varied per drug (S1 Table). Drug treatment was added at time 0 and cells were maintained in culture for 6 days. Concentrations tested for each drug compound are contained in S1 Table. Concentrations were selected to span a range that is clinically useful. Following treatment, cell populations were measured using flow cytometry. We extracted cell counts from flow cytometry data, normalized to bead counts, and corrected for well volume.
Each well was normalized to the average of six vehicle control wells. For drugs that were tested across multiple runs of the assay, vehicle-normalized donor data were pooled, and we used the average of these pooled data for further modeling. Normalized data used as model inputs are included in S1 Table.

[7] = QSP model fit of 6-day MLTA data
[8] = cell-killing component, max(0, EmaxT-1)

CC(=O)O[C@@]12CO[C@@H]1C[C@H](O)[C@@]1(C)C(=O)[C@H](O)C3=C(C)[C@@H](OC(=O)[C@H](O)[C@@H](NC(=O)OC(C)(C)C)c4ccccc4)C[C@@](O)([C@@H](OC(=O)c4ccccc4)[C@H]21)C3(C)C [docetaxel]
EC50 (B cells (B-lin); [7]): 10.4 nM | activity at 0.0002 µM (B cells (B-lin); dose 0.2 nM, 6 days, normalized to vehicle control, read-out: B-lin normalized cell count): 89% | activity at 0.001 µM (B cells (B-lin); dose 1 nM, 6 days, normalized to vehicle control, read-out: B-lin normalized cell count): 94.8% | activity at 0.005 µM (B cells (B-lin); dose 5 nM, 6 days, normalized to vehicle control, read-out: B-lin normalized cell count): 3.47% | activity at 0.025 µM (B cells (B-lin); dose 25 nM, 6 days, normalized to vehicle control, read-out: B-lin normalized cell count): 0.169% | activity at 0.1 µM (B cells (B-lin); dose 100 nM, 6 days, normalized to vehicle control, read-out: B-lin normalized cell count): 1.5% | activity at 0.5 µM (B cells (B-lin); dose 500 nM, 6 days, normalized to vehicle control, read-out: B-lin normalized cell count): 1.33% | activity at 2.5 µM (B cells (B-lin); dose 2500 nM, 6 days, normalized to vehicle control, read-out: B-lin normalized cell count): 0.24% | Emax (B cells (B-lin); parameter from QSP model fitting, read-out: Emax_drug_B): 102% | EC50 ([1]; Homo sapiens, 144 h, QSP model fit of 6-day MLTA data): 4.71 nM | activity at 0.0002 µM ([1]; Homo sapiens, 144 h, dose 0.2 nM, 6 days, normalized to vehicle control, read-out: MPPs normalized cell count): 91% | activity at 0.001 µM ([1]; Homo sapiens, 144 h, dose 1 nM, 6 days, normalized to vehicle control, read-out: MPPs normalized cell count): 107% | activity at 0.005 µM ([1]; Homo sapiens, 144 h, dose 5 nM, 6 days, normalized to vehicle control, read-out: MPPs normalized cell count): 63.9% | activity at 0.025 µM ([1]; Homo sapiens, 144 h, dose 25 nM, 6 days, normalized to vehicle control, read-out: MPPs normalized cell count): 2.42% | activity at 0.1 µM ([1]; Homo sapiens, 144 h, dose 100 nM, 6 days, normalized to vehicle control, read-out: MPPs normalized cell count): 0.694% | activity at 0.5 µM ([1]; Homo sapiens, 144 h, dose 500 nM, 6 days, normalized to vehicle control, read-out: MPPs normalized cell count): 2.03% | activity at 2.5 µM ([1]; Homo sapiens, 144 h, dose 2500 nM, 6 days, normalized to vehicle control, read-out: MPPs normalized cell count): 0.798% | Emax ([1]; Homo sapiens, 144 h, parameter from QSP model fitting, read-out: Emax_drug_MPP): 201% | EmaxCK,MPP [1, 8]: 1.014 day⁻¹ | EC50 ([2]; Homo sapiens, 144 h, QSP model fit of 6-day MLTA data, read-out: EC50ErythI): 8.14 nM | activity at 0.0002 µM ([2]; Homo sapiens, 144 h, dose 0.2 nM, 6 days, normalized to vehicle control, read-out: ErythI normalized cell count): 112% | activity at 0.001 µM ([2]; Homo sapiens, 144 h, dose 1 nM, 6 days, normalized to vehicle control, read-out: ErythI normalized cell count): 110% | activity at 0.005 µM ([2]; Homo sapiens, 144 h, dose 5 nM, 6 days, normalized to vehicle control, read-out: ErythI normalized cell count): 5.32% | activity at 0.025 µM ([2]; Homo sapiens, 144 h, dose 25 nM, 6 days, normalized to vehicle control, read-out: ErythI normalized cell count): 0.559% | activity at 0.1 µM ([2]; Homo sapiens, 144 h, dose 100 nM, 6 days, normalized to vehicle control, read-out: ErythI normalized cell count): 0.401% | activity at 0.5 µM ([2]; Homo sapiens, 144 h, dose 500 nM, 6 days, normalized to vehicle control, read-out: ErythI normalized cell count): 0.687% | activity at 2.5 µM ([2]; Homo sapiens, 144 h, dose 2500 nM, 6 days, normalized to vehicle control, read-out: ErythI normalized cell count): 0.409% | Emax ([2]; Homo sapiens, 144 h, parameter from QSP model fitting, read-out: Emax_drug_ErythroidI): 173% | EmaxCK,ErythI [2, 8]: 0.726 day⁻¹ | EC50 (monocytes (monocyte-lin); [7]): 9.03 nM | activity at 0.0002 µM (monocytes (monocyte-lin); dose 0.2 nM, 6 days, normalized to vehicle control, read-out: Mon normalized cell count): 103% | activity at 0.001 µM (monocytes (monocyte-lin); dose 1 nM, 6 days, normalized to vehicle control, read-out: Mon normalized cell count): 106% | activity at 0.005 µM (monocytes (monocyte-lin); dose 5 nM, 6 days, normalized to vehicle control, read-out: Mon normalized cell count): 2.6% | activity at 0.025 µM (monocytes (monocyte-lin); dose 25 nM, 6 days, normalized to vehicle control, read-out: Mon normalized cell count): 1.23% | activity at 0.1 µM (monocytes (monocyte-lin); dose 100 nM, 6 days, normalized to vehicle control, read-out: Mon normalized cell count): 1.06% | activity at 0.5 µM (monocytes (monocyte-lin); dose 500 nM, 6 days, normalized to vehicle control, read-out: Mon normalized cell count): 2.03% | activity at 2.5 µM (monocytes (monocyte-lin); dose 2500 nM, 6 days, normalized to vehicle control, read-out: Mon normalized cell count): 1.39% | Emax (monocytes (monocyte-lin); parameter from QSP model fitting, read-out: Emax_drug_Mono): 19.8% | EC50 ([3]; Homo sapiens, Hematopoietic stem cell, 144 h, QSP model fit of 6-day MLTA data): 33.7 nM | activity at 0.0002 µM ([3]; Homo sapiens, Hematopoietic stem cell, 144 h, dose 0.2 nM, 6 days, normalized to vehicle control, read-out: HSCs normalized cell count): 97.9% | activity at 0.001 µM ([3]; Homo sapiens, Hematopoietic stem cell, 144 h, dose 1 nM, 6 days, normalized to vehicle control, read-out: HSCs normalized cell count): 104% | activity at 0.005 µM ([3]; Homo sapiens, Hematopoietic stem cell, 144 h, dose 5 nM, 6 days, normalized to vehicle control, read-out: HSCs normalized cell count): 64.6% | activity at 0.025 µM ([3]; Homo sapiens, Hematopoietic stem cell, 144 h, dose 25 nM, 6 days, normalized to vehicle control, read-out: HSCs normalized cell count): 4% | activity at 0.1 µM ([3]; Homo sapiens, Hematopoietic stem cell, 144 h, dose 100 nM, 6 days, normalized to vehicle control, read-out: HSCs normalized cell count): 0.534% | activity at 0.5 µM ([3]; Homo sapiens, Hematopoietic stem cell, 144 h, dose 500 nM, 6 days, normalized to vehicle control, read-out: HSCs normalized cell count): 2.32% | activity at 2.5 µM ([3]; Homo sapiens, Hematopoietic stem cell, 144 h, dose 2500 nM, 6 days, normalized to vehicle control, read-out: HSCs normalized cell count): 0.559% | Emax ([3]; Homo sapiens, Hematopoietic stem cell, 144 h, parameter from QSP model fitting, read-out: Emax_drug_HSC): 130% | EmaxCK,HSC [3, 8]: 0.3 day⁻¹ | EC50 ([4]; QSP model fit of 6-day MLTA data, read-out: EC50ErythII): 6.3 nM | activity at 0.0002 µM ([4]; dose 0.2 nM, 6 days, normalized to vehicle control, read-out: ErythII normalized cell count): 91.6% | activity at 0.001 µM ([4]; dose 1 nM, 6 days, normalized to vehicle control, read-out: ErythII normalized cell count): 105% | activity at 0.005 µM ([4]; dose 5 nM, 6 days, normalized to vehicle control, read-out: ErythII normalized cell count): 0.449% | activity at 0.025 µM ([4]; dose 25 nM, 6 days, normalized to vehicle control, read-out: ErythII normalized cell count): 0.0341% | activity at 0.1 µM ([4]; dose 100 nM, 6 days, normalized to vehicle control, read-out: ErythII normalized cell count): 0.0344% | activity at 0.5 µM ([4]; dose 500 nM, 6 days, normalized to vehicle control, read-out: ErythII normalized cell count): 0.0336% | activity at 2.5 µM ([4]; dose 2500 nM, 6 days, normalized to vehicle control, read-out: ErythII normalized cell count): 0.0256% | Emax ([4]; parameter from QSP model fitting, read-out: Emax_drug_ErythroidII): 1.59% | EC50 ([5]; Homo sapiens, Monocyte, 144 h, QSP model fit of 6-day MLTA data, read-out: EC50MonoP): 7.88 nM | activity at 0.0002 µM ([5]; Homo sapiens, Monocyte, 144 h, dose 0.2 nM, 6 days, normalized to vehicle control, read-out: MonoPs normalized cell count): 110% | activity at 0.001 µM ([5]; Homo sapiens, Monocyte, 144 h, dose 1 nM, 6 days, normalized to vehicle control, read-out: MonoPs normalized cell count): 107% | activity at 0.005 µM ([5]; Homo sapiens, Monocyte, 144 h, dose 5 nM, 6 days, normalized to vehicle control, read-out: MonoPs normalized cell count): 7.72% | activity at 0.025 µM ([5]; Homo sapiens, Monocyte, 144 h, dose 25 nM, 6 days, normalized to vehicle control, read-out: MonoPs normalized cell count): 0.204% | activity at 0.1 µM ([5]; Homo sapiens, Monocyte, 144 h, dose 100 nM, 6 days, normalized to vehicle control, read-out: MonoPs normalized cell count): 0.162% | activity at 0.5 µM ([5]; Homo sapiens, Monocyte, 144 h, dose 500 nM, 6 days, normalized to vehicle control, read-out: MonoPs normalized cell count): 0.302% | activity at 2.5 µM ([5]; Homo sapiens, Monocyte, 144 h, dose 2500 nM, 6 days, normalized to vehicle control, read-out: MonoPs normalized cell count): 0.319% | Emax ([5]; Homo sapiens, Monocyte, 144 h, parameter from QSP model fitting, read-out: Emax_drug_MonoP): 146% | EmaxCK,MonoP [5, 8]: 0.459 day⁻¹ | activity at 0.0002 µM ([6]; dose 0.2 nM): 104% | activity at 0.001 µM ([6]; dose 1 nM): 107% | activity at 0.005 µM ([6]; dose 5 nM): 113% | activity at 0.025 µM ([6]; dose 25 nM): 45.7% | activity at 0.1 µM ([6]; dose 100 nM): 46.1% | activity at 0.5 µM ([6]; dose 500 nM): 41.6% | activity at 2.5 µM ([6]; dose 2500 nM): 48.4%
